Experimental data taken from patent US20190330224A1, “ACC INHIBITORS AND USES THEREOF” (Gilead Apollo, LLC, priority 2015, published 2019).
In brackets after ≈: the same amount, converted by molar mass.

Experiments:
Rhizoctonia solani (Rs) = experiment: Growth inhibition assay of fungal pathogens, Rs; type: cell-based; conditions: 48 hours, read-out: Concentration at 90% Inhibition, Rs
[1] = compound concentration 10 ppm, foliar spray, evaluated 7 days after inoculation
[2] = test system: Phytophthora capsici (Pc); experiment: Growth inhibition assay of fungal pathogens, Pc; type: cell-based; conditions: 48 hours, read-out: Concentration at 90% Inhibition, Pc
Method in brief: (§1)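 Spores in 17% V8 medium exposed to compound at final 50, 10, 2 ppm or 2, 0.4, 0.08 ppm, with 2% DMSO. OD600 and visual ratings taken at 24 and 48 h, with blank subtracted. Percent growth inhibition derived from 48 h readings relative to 2% DMSO control.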

Human ACC2 = Human ACC2 (Homo sapiens, UniProt O00763); experiment: In vitro ACC2 inhibition assay (ADP-Glo), human ACC2; type: biochemical; conditions: 5 nM ACC2, 20 μM ATP, 20 μM acetyl-CoA
Botrtyis cinerea (Bc) = experiment: Growth inhibition assay of fungal pathogens, Bc; type: cell-based; conditions: 48 hours; read-out: Concentration at 90% Inhibition, Bc
Method in brief: as §1

[3] = test system: Fusarium moniliforme (Fm); experiment: Growth inhibition assay of fungal pathogens, Fm; type: cell-based; conditions: Fusarium verticillioides; 48 hours; read-out: Concentration at 90% Inhibition, Fm
Method in brief: as §1

[4] = test system: Collectotrichum graminicola (Cg); experiment: Growth inhibition assay of fungal pathogens, Cg; type: cell-based; conditions: 48 hours; read-out: Concentration at 90% Inhibition, Cg
Method in brief: as §1

Diplodia maydis (Dm) = experiment: Growth inhibition assay of fungal pathogens, Dm; type: cell-based; conditions: Stenocarpella maydis; 48 hours; read-out: Concentration at 90% Inhibition, Dm
Method in brief: as §1

C. krusei ATCC 6258 = experiment: Anti-Fungal Activity Assay (broth microtiter MIC), C. krusei; type: cell-based, Candida krusei; conditions: Pichia kudriavzevii, ATCC6258, 48 h, 3 replicates; MIC recorded at 48 h; read-out: MIC C. krusei ATCC 6258
Method in brief: (§2)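 Plate from frozen stock onto Sabouraud dextrose agar, 35° C overnight; swab colonies into RPMI 1640+MOPS; set density via standard curves; run CLSI M27-A3 broth microdilution; score MIC visually versus growth control at 48 h, soraphen additionally at 24 h.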

Fungal ACC2 = Fungal ACC2 (UniProt Q00955); conditions: read-out: Fungal ACC2 (IC50, in vitro ACC2 inhibition)
[5] = test system: Fusarium virguliforme (Fv); experiment: Growth inhibition assay of fungal pathogens, Fv; type: cell-based; conditions: 48 hours, read-out: Concentration at 90% Inhibition, Fv
Method in brief: as §1

Septoria tritici (St) = experiment: Growth inhibition assay of fungal pathogens, St; type: cell-based; conditions: Zymoseptoria tritici; 48 hours; read-out: Concentration at 90% Inhibition, St
Method in brief: as §1

C. albicans ATCC 90028 = experiment: Anti-Fungal Activity Assay (broth microtiter MIC), C. albicans; type: cell-based, Candida albicans; conditions: Candida albicans, ATCC90028, 48 h, 3 replicates; MIC recorded at 48 h; read-out: MIC C. albicans ATCC 90028
Method in brief: as §2

[6] = test system: Blumeria graminis f sp. hordei; experiment: Foliar protection test, barley powdery mildew control; type: in vivo, Blumeria graminis f sp. hordei on Hordeum vulgare cv. Perry; conditions: 168 h, compound concentration 50 ppm, foliar spray, evaluated 7 days after inoculation, read-out: Barley Powdery Mildew Control at 50 ppm
Method in brief: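 Barley cv. Perry at first true leaf (6 days) sprayed to wetness on both leaf sides with compound in 5% acetone/0.005% Tween 80, typically at 200, 100, 50, 10 or 2 ppm. Inoculated 24 h later by shaking spores from colonized plants; kept at 20-22 °C, 70% RH. Mildew colonization scored 7 days later as percent control.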

[7] = test system: C. parapsilosis ATCC 22019; experiment: Anti-Fungal Activity Assay (broth microtiter MIC), C. parapsilosis; type: cell-based, Candida parapsilosis; conditions: Lodderomyces parapsilosis, ATCC22019, 48 h, 3 replicates; MIC recorded at 48 h; read-out: MIC C. parapsilosis ATCC 22019
Method in brief: as §2

Fungal ACC2, sequence (Q00955 whole entry): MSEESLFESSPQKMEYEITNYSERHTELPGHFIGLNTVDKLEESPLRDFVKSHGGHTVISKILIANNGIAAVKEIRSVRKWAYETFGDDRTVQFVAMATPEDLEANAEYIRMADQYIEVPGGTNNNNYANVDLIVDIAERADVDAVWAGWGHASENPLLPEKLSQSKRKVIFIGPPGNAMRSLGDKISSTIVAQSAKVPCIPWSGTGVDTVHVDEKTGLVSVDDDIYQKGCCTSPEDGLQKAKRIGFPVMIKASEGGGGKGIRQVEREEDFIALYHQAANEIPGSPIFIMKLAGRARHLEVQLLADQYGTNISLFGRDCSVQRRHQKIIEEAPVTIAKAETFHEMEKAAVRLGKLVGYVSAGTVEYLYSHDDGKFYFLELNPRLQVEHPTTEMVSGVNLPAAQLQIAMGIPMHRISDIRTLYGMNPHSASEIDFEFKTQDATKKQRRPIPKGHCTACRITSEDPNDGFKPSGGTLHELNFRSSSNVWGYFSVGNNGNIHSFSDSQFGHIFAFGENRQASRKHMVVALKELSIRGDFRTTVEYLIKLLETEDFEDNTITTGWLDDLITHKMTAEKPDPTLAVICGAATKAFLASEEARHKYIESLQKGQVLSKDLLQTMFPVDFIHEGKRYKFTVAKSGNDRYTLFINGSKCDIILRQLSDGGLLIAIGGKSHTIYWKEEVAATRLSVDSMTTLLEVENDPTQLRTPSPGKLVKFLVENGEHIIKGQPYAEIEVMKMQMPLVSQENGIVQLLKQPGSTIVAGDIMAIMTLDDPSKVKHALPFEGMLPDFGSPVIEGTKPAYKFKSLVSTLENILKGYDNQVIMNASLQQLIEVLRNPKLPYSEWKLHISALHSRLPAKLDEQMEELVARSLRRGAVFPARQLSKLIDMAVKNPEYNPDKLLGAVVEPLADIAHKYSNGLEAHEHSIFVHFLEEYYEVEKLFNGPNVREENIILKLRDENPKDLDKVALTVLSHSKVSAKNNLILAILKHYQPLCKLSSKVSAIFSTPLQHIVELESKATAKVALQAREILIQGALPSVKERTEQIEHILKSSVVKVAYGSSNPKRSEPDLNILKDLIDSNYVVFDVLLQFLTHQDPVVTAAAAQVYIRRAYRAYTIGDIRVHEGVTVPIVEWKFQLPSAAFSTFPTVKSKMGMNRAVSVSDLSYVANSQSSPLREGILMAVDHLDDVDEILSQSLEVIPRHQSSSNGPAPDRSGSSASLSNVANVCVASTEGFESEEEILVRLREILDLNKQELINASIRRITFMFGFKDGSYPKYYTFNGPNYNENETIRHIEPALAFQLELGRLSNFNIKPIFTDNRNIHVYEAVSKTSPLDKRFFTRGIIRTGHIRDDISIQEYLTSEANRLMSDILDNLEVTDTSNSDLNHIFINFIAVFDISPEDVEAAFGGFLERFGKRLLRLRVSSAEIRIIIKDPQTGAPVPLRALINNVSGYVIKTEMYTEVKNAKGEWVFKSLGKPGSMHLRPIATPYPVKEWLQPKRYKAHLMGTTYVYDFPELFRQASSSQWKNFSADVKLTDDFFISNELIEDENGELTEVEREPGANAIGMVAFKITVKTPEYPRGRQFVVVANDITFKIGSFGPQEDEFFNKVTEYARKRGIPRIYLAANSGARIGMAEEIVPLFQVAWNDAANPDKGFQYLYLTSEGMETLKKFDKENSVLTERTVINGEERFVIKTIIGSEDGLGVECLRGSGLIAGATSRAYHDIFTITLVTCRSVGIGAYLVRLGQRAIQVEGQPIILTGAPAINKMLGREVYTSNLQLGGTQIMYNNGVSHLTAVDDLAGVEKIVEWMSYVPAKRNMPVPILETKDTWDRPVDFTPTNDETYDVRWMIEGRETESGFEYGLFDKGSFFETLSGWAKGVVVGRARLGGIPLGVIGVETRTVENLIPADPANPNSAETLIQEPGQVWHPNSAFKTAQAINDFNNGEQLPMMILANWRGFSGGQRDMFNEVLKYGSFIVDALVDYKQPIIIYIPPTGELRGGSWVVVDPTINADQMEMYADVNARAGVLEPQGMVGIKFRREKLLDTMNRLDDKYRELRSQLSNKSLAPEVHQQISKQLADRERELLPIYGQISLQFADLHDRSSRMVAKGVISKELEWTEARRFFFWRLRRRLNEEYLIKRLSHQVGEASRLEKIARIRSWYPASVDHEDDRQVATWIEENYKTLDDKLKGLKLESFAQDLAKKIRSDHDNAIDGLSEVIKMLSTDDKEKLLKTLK
Human ACC2, sequence (O00763 whole entry): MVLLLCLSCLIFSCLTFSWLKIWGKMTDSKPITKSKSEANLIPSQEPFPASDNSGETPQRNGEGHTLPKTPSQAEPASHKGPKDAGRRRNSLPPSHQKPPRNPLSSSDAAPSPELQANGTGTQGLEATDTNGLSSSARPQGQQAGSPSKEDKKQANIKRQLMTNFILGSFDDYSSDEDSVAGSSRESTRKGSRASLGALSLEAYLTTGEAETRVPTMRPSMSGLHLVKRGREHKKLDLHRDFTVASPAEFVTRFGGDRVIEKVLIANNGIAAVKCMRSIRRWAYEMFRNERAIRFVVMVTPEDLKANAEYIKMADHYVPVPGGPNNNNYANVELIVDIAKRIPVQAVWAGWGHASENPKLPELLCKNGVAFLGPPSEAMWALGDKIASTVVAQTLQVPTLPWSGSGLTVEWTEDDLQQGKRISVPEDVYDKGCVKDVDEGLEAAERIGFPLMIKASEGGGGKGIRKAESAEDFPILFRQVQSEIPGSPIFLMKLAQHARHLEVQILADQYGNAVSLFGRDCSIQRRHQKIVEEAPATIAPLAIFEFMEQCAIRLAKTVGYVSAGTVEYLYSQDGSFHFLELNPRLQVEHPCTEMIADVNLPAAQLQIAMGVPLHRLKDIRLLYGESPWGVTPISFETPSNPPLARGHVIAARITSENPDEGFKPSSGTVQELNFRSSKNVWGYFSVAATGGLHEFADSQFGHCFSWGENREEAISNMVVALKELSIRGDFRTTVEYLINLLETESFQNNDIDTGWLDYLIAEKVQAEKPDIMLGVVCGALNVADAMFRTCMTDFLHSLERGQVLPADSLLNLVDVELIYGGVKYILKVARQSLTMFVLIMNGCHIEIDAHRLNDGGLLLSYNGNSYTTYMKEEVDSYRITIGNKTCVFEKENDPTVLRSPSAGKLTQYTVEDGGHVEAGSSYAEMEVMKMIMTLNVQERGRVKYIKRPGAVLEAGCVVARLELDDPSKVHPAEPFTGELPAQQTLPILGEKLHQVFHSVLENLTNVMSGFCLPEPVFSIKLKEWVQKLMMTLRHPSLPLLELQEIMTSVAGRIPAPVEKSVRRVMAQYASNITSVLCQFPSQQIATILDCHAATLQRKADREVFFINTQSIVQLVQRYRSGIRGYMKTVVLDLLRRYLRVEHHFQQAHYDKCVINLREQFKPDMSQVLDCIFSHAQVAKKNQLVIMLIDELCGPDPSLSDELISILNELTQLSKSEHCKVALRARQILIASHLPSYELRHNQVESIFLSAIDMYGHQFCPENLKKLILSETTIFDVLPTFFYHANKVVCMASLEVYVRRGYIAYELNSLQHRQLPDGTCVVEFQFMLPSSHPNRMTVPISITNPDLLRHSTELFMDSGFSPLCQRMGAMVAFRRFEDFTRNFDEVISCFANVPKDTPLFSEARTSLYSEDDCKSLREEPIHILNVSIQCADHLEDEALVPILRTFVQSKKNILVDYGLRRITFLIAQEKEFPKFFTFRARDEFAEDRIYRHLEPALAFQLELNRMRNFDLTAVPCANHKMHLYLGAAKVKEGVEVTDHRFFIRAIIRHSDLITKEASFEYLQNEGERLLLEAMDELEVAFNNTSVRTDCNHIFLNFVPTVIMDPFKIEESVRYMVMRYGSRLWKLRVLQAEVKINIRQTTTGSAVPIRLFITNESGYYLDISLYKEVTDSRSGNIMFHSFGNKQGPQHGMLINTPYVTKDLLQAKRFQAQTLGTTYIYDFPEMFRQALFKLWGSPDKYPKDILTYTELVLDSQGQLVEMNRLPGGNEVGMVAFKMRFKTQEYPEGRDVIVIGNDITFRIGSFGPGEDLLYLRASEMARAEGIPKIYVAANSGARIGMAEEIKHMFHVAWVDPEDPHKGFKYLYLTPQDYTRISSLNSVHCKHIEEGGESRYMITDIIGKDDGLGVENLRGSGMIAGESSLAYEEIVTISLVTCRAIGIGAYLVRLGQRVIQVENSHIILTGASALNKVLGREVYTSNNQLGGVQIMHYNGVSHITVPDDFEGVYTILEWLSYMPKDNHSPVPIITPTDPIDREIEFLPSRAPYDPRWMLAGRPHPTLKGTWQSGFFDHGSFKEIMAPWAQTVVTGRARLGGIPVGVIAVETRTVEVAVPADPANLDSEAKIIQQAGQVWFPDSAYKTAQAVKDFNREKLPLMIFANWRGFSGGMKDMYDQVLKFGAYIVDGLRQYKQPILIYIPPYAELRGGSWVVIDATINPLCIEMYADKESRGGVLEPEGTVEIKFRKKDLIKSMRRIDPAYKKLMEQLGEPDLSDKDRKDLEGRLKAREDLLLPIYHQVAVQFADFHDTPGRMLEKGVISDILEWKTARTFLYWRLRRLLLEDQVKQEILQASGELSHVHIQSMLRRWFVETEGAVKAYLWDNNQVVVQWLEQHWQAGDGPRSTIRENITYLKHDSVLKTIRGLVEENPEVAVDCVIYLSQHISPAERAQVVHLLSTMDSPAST

Row | Structure (SMILES) | IC90 (Rhizoctonia solani (Rs)) | Barley Powdery Mildew Control at 10 ppm [1] | IC90 [2] | IC50 (Human ACC2) | IC90 (Botrtyis cinerea (Bc)) | IC90 [3] | IC90 [4] | IC90 (Diplodia maydis (Dm)) | MIC (C. krusei ATCC 6258) | IC50 (Fungal ACC2) | IC90 [5] | IC90 (Septoria tritici (St)) | MIC (C. albicans ATCC 90028) | pest or weed control at 50 ppm [6] | MIC [7]
1 | COCCO[C@@H](Cn1c(=O)n([C@H]2CCN(C)C2=O)c(=O)c2c(C)c(-n3nccn3)sc21)c1cc(F)ccc1OC [Compound I-27, 1-((R)-2-(5-fluoro-2-methoxyphenyl)-2-(2-methoxy-ethoxy)ethyl)-5-methyl-3-((S)-1-methyl-2-oxopyrrolidin-3-yl)-6-(2H-1,2,3-triazol-2-yl)thieno[2,3-d]pyrimidine-2,4(1H,3H)-dione] | > 50 µg/mL | D (provided a compound having <25% control of barley powdery mildew) | > 50 µg/mL | 10 to 100 nM | 2 µg/mL (≈ 3.49 µM) | 2 µg/mL (≈ 3.49 µM) | > 50 µg/mL | > 50 µg/mL | 2.1 to 4 µg/mL (≈ 3.67 to 6.99 µM) | 2 to 10 nM | 10 µg/mL (≈ 17.5 µM) | > 50 µg/mL | 2.1 to 4 µg/mL (≈ 3.67 to 6.99 µM) | 50 to 69% | 2.1 to 4 µg/mL (≈ 3.67 to 6.99 µM)
2 | COCCO[C@@H](Cn1c(=O)n([C@@H]2CCN(C)C2=O)c(=O)c2c(C)c(-n3nccn3)sc21)c1cc(F)ccc1OC [Compound I-28, 1-((R)-2-(5-fluoro-2-methoxyphenyl)-2-(2-methoxy-ethoxy)ethyl)-5-methyl-3-((R)-1-methyl-2-oxopyrrolidin-3-yl)-6-(2H-1,2,3-triazol-2-yl)thieno[2,3-d]pyrimidine-2,4(1H, 3H)-dione] | 10 µg/mL (≈ 17.5 µM) | A (provided a compound having from 70% to 84% control of barley powdery mildew) | > 50 µg/mL | 10 to 100 nM | 2 µg/mL (≈ 3.49 µM) | 2 µg/mL (≈ 3.49 µM) | > 50 µg/mL | > 50 µg/mL | 2.1 to 4 µg/mL (≈ 3.67 to 6.99 µM) | 2 to 10 nM | > 50 µg/mL | > 50 µg/mL | 2.1 to 4 µg/mL (≈ 3.67 to 6.99 µM) | > 85% | 2.1 to 4 µg/mL (≈ 3.67 to 6.99 µM)
3 | COCCO[C@@H](Cn1c(=O)n([C@H]2CCCNC2=O)c(=O)c2c(C)c(-n3nccn3)sc21)c1cc(F)ccc1OC [Compound I-29, 1-((R)-2-(5-fluoro-2-methoxyphenyl)-2-(2-methoxy-ethoxy)ethyl)-5-methyl-3-((S)-2-oxopiperidin-3-yl)-6-(2H-1,2,3-triazol-2-yl)thieno[2,3-d]pyrimidine-2,4(1H,3H)-dione] | > 50 µg/mL | C (provided a compound having from 25 to 49% control of barley powdery mildew) | > 50 µg/mL | 10 to 100 nM | 10 µg/mL (≈ 17.5 µM) | 10 µg/mL (≈ 17.5 µM) | > 50 µg/mL | > 50 µg/mL | 2.1 to 4 µg/mL (≈ 3.67 to 6.99 µM) | 0.7 to 2 nM | > 50 µg/mL | > 50 µg/mL | 2.1 to 4 µg/mL (≈ 3.67 to 6.99 µM) | 70 to 84% | 2.1 to 4 µg/mL (≈ 3.67 to 6.99 µM)
4 | COCCO[C@@H](Cn1c(=O)n([C@@H]2CCCNC2=O)c(=O)c2c(C)c(-n3nccn3)sc21)c1cc(F)ccc1OC [Compound I-30, 1-((R)-2-(5-fluoro-2-methoxyphenyl)-2-(2-methoxy-ethoxy)ethyl)-5-methyl-3-((R)-2-oxopiperidin-3-yl)-6-(2H-1,2,3-triazol-2-yl)thieno[2,3-d]pyrimidine-2,4(1H,3H)-dione] | > 50 µg/mL | D (provided a compound having <25% control of barley powdery mildew) | > 50 µg/mL | 10 to 100 nM | 10 µg/mL (≈ 17.5 µM) | > 50 µg/mL | > 50 µg/mL | > 50 µg/mL | 2.1 to 4 µg/mL (≈ 3.67 to 6.99 µM) | 0.7 to 2 nM | > 50 µg/mL | > 50 µg/mL | 2.1 to 4 µg/mL (≈ 3.67 to 6.99 µM) | 50 to 69% | 2.1 to 4 µg/mL (≈ 3.67 to 6.99 µM)
5 | COCCO[C@@H](Cn1c(=O)n([C@H]2CCCN(C)C2=O)c(=O)c2c(C)c(-n3nccn3)sc21)c1cc(F)ccc1OC [Compound I-31, 1-((R)-2-(5-fluoro-2-methoxyphenyl)-2-(2-methoxy-ethoxy)ethyl)-5-methyl-3-((S)-1-methyl-2-oxopiperidin-3-yl)-6-(2H-1,2,3-triazol-2-yl)thieno[2,3-d]pyrimidine-2,4(1H,3H)-dione] | > 50 µg/mL | B (provided a compound having from 50 to 69% control of barley powdery mildew) | > 50 µg/mL | 10 to 100 nM | 10 µg/mL (≈ 17 µM) | 2 µg/mL (≈ 3.41 µM) | > 50 µg/mL | > 50 µg/mL | 2.1 to 4 µg/mL (≈ 3.58 to 6.82 µM) | 0.7 to 2 nM | 2 µg/mL (≈ 3.41 µM) | > 50 µg/mL | 2.1 to 4 µg/mL (≈ 3.58 to 6.82 µM) | 70 to 84% | 2.1 to 4 µg/mL (≈ 3.58 to 6.82 µM)
6 | COCCO[C@@H](Cn1c(=O)n([C@@H]2CCCN(C)C2=O)c(=O)c2c(C)c(-n3nccn3)sc21)c1cc(F)ccc1OC [Compound I-32, 1-((R)-2-(5-fluoro-2-methoxyphenyl)-2-(2-methoxy-ethoxy)ethyl)-5-methyl-3-((R)-1-methyl-2-oxopiperidin-3-yl)-6-(2H-1,2,3-triazol-2-yl)thieno[2,3-d]pyrimidine-2,4(1H,3H)-dione] | > 50 µg/mL | C (provided a compound having from 25 to 49% control of barley powdery mildew) | > 50 µg/mL | 10 to 100 nM | 10 µg/mL (≈ 17 µM) | 2 µg/mL (≈ 3.41 µM) | > 50 µg/mL | > 50 µg/mL | 2.1 to 4 µg/mL (≈ 3.58 to 6.82 µM) | 0.7 to 2 nM | > 50 µg/mL | > 50 µg/mL | 2.1 to 4 µg/mL (≈ 3.58 to 6.82 µM) | 70 to 84% | 2.1 to 4 µg/mL (≈ 3.58 to 6.82 µM)
7 | COCCO[C@@H](Cn1c(=O)n([C@@H]2CCNC2=O)c(=O)c2c(C)c(-n3cccn3)sc21)c1cc(F)ccc1OC [Compound I-42, 1-((R)-2-(5-fluoro-2-methoxyphenyl)-2-(2-methoxy-ethoxy)ethyl)-5-methyl-3-((R)-2-oxopyrrolidin-3-yl)-6-(1H-pyrazol-1-yl)thieno[2,3-d]pyrimidine-2,4(1H,3H)-dione] | > 50 µg/mL | D (provided a compound having <25% control of barley powdery mildew) | > 50 µg/mL | 10 to 100 nM | > 50 µg/mL | > 50 µg/mL | > 50 µg/mL | > 50 µg/mL | 2.1 to 4 µg/mL (≈ 3.77 to 7.17 µM) | 2 to 10 nM | > 50 µg/mL | > 50 µg/mL | 2.1 to 4 µg/mL (≈ 3.77 to 7.17 µM) | 25 to 49% | 2.1 to 4 µg/mL (≈ 3.77 to 7.17 µM)
8 | COCCO[C@@H](Cn1c(=O)n([C@@H]2CCN(C)C2=O)c(=O)c2c(C)c(-n3cccn3)sc21)c1cc(F)ccc1OC [Compound I-44, 1-((R)-2-(5-fluoro-2-methoxyphenyl)-2-(2-methoxy-ethoxy)ethyl)-5-methyl-3-((R)-1-methyl-2-oxopyrrolidin-3-yl)-6-(1H-pyrazol-1-yl)thieno[2,3-d]pyrimidine-2,4(1H,3H)-dione] | > 50 µg/mL | D (provided a compound having <25% control of barley powdery mildew) | > 50 µg/mL | 10 to 100 nM | > 50 µg/mL | 10 µg/mL (≈ 17.5 µM) | > 50 µg/mL | > 50 µg/mL | 2.1 to 4 µg/mL (≈ 3.67 to 7 µM) | 2 to 10 nM | > 50 µg/mL | > 50 µg/mL | 2.1 to 4 µg/mL (≈ 3.67 to 7 µM) | 70 to 84% | 2.1 to 4 µg/mL (≈ 3.67 to 7 µM)
